Results from US20040102485A1, “Tartrate salt of thiazolidinedione derivative” (priority 2003, published 2004).

Assay: Solid state stability of the Meso-Tartrate (storage in glass bottle, HPLC assay for final content and degradation products)
Assay type: physicochemical
Details: 1 month
Procedure: Solid State Stability of the Meso-Tartrate, recorded for the product of Example 1 The solid state stability of the drug substance was determined by storing approximately 1.0 g of the material in a glass bottle at i) 40° C./75% Relative Humidity (RH), open exposure, for 1 month and b) at 50° C., closed, for 1 month. The material was assayed by HPLC for final content and degradation products in both cases.

[1] = 40° C./75% Relative Humidity (RH), open exposure

CN(CCOc1ccc(CC2SC(=O)NC2=O)cc1)c1ccccn1.O=C(O)C(O)C(O)C(=O)O (stereo not drawn) [Example 1, 5-[4-[2-(N-methyl-N-(2-pyridyl)amino)ethoxy]benzyl]thiazolidine-2,4-dione Meso-Tartrate]
HPLC assay (final content) [1]: 97 % initial | degradation (HPLC, degradation products) [1]: No significant degradation observed | HPLC assay (final content) (50° C., closed): 98 % initial | degradation (HPLC, degradation products) (50° C., closed): No significant degradation observed
